Values of other authors in patent US20060035883A1, “Novel serotonin receptor ligands and their uses thereof” (priority 2004, published 2006).

Key:
Conditions in all cases: read-out: Receptor affinities (Ki)
D2 = D2 (Homo sapiens, UniProt P14416)
α2 = target: α2
5-HT2C = target: T1, 5-HT2C (Homo sapiens, UniProt P28335)
T1 sequence (P28335 33-458): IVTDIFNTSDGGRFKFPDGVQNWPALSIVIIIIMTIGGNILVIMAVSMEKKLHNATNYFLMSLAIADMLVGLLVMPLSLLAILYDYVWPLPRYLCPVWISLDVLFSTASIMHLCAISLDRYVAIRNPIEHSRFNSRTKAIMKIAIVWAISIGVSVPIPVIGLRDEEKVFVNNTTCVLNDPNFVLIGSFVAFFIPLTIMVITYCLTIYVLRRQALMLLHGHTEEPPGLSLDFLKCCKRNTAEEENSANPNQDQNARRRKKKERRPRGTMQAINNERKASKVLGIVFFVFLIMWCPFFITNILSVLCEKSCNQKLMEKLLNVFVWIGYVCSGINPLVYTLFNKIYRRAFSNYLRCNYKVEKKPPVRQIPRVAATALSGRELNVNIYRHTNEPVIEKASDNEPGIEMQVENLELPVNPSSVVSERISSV

α1 = target: α1
5-HT3 = target: T2, 5-HT3 (Homo sapiens, UniProt P46098)
T2 sequence (P46098 24-478): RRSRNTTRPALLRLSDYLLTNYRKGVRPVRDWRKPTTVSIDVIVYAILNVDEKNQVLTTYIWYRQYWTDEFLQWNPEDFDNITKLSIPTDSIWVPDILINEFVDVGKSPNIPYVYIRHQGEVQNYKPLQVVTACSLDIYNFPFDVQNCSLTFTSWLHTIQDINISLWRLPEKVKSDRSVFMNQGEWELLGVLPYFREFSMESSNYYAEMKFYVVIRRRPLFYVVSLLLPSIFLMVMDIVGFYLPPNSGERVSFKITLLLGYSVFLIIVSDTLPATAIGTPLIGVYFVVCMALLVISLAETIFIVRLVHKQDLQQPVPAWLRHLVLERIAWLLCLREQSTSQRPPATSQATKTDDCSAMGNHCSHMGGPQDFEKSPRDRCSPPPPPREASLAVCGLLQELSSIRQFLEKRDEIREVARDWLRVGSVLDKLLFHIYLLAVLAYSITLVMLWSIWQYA

Chain of D2 (P14416 whole entry): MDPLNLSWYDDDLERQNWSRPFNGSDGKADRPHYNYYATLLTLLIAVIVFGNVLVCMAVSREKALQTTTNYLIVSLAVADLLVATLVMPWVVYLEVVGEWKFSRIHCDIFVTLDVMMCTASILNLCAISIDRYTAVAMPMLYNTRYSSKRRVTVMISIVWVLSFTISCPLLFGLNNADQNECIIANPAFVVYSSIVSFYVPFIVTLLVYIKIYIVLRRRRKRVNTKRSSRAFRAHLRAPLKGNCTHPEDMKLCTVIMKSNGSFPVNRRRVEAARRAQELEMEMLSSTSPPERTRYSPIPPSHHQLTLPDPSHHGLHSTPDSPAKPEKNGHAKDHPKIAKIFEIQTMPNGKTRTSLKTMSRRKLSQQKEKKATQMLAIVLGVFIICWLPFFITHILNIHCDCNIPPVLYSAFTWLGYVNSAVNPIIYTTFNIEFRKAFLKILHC

Structure (SMILES) | Ki (D2) | Ki (α2) | Ki (5-HT2C) | Ki (α1) | Ki (5-HT3)
CN1CCN2c3ccccc3Cc3ccccc3C2C1 (stereo not drawn) [Mianserin] | > 1000 nM | – | – | – | –
CN1CCN2c3ncccc3Cc3ccccc3C2C1 (stereo not drawn) [Mirtazepine, mirtazepine] | > 1000 nM | 65 nM | 12 nM | 500 nM | 8 nM
